The source of these data is publication PMC11440500, “A De Novo Metalloenzyme for Cerium Photoredox Catalysis” (Journal of the American Chemical Society, 2024).

This assay has as its system T1, PLZ1.4 (PhotoLanZyme 1.4).
T1 construct: de novo design; single-chain fusion of two TFD subunits via one Gly; active-site W6 and W175 removed, two active-site mutations, eight surface mutations (6x D to N, 2x E to Q); loaded with CeCl3
As to the kind of experiment: Michaelis-Menten kinetics of photocatalytic diol cleavage. The assay is classed as biochemical, synthetic construct. The following applies: CeCl3-loaded enzyme, visible light, aerobic, aqueous buffer.

For the molecule `O[C@H](c1ccccc1)[C@H](O)c1ccccc1` [(R,R)-1], the Km ((R,R) isomer per Figure 2F) stood at 2.9 ± 0.4 mM. As to `OCC(Oc1ccccc1)C(O)c1ccccc1` (centres unmarked) [compound 24, lignin surrogate 24], the Km worked out at 5.5 ± 1 mM.

As a reminder, the Km is the substrate concentration at which the rate is half of its maximum.
